Here are results for one molecule from publication PMC11191602, “A novel and selective fluorescent ligand for the study of adenosine A2B receptors” (Pharmacology Research & Perspectives, 2024).

For test [1], the target named is T1, human A2BR tagged with N‐terminal nanoluciferase (NLuc‐A2BR) (Homo sapiens, UniProt P29275).
T1 construct: expressed in transfected cells
T1 sequence (P29275 1-332): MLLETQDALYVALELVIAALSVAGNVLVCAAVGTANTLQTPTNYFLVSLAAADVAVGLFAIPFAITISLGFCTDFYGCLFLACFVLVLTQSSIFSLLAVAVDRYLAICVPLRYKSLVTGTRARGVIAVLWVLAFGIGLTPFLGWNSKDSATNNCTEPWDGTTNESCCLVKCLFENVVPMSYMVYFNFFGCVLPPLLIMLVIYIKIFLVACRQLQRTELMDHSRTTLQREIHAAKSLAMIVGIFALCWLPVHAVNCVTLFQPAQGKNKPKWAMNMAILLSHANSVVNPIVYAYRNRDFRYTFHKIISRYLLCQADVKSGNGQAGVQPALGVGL
Briefly: NanoBRET saturation binding of PSB603‐BY630 in live HEK293G cells stably expressing NLuc‐A2BR. The following applies: non‐specific binding defined with 1 μM MRS‐1706, 1 h 37°C, mean of five experiments. How it is done:
Saturation and competition binding assays were performed as previously described.[36] Briefly, cells were seeded in 96‐well white clear‐bottomed Greiner plates pre‐treated with 10 μg/mL poly‐D‐lysine (Sigma‐Aldrich, Missouri USA) at a density of 30 000–35 000 cells per well in DMEM supplemented with 10% FBS. The following day medium was removed and cells were incubated with PSB603‐BY630 in the presence or absence of 1 μM MRS1706 (saturation binding assays) or competing ligand in the presence of 50 nM PSB603‐BY630 (competition binding assays) in HEPES buffered saline solution (HBSS; 145 mM NaCl, 5 mM KCl, 1.3 mM CaCl2, 1 mM MgSO4, 10 mM HEPES, 2 mM sodium pyruvate, 1.5 mM NaHCO3, 10 mM D‐glucose, pH 7.45) with 0.1% bovine serum albumin for 1 h at 37°C. […] The resulting bioluminescence resonance energy transfer (BRET) was measured using a PHERAstar FS plate reader (BMG Labtech) at 37°C. For each well, filtered light emissions at 460 nm (80 nm bandpass) and >610 nm (longpass) for the BODIPY630/650 ligand were simultaneously measured. BRET ratios were calculated by dividing the 610 nm emission by the 460 nm emission. […] For kinetic experiments, cells were preincubated for 10 min with 1:400 dilution of furimazine prior to addition of 200 nM PSB603‐BY630 and BRET ratios determined every 0.5 min. […]
Data were analyzed using Prism 7.4 software (GraphPad, San Diego, USA). […]
(In general: In BRET a luciferase serves as donor, and the signal depends on an acceptor being close.)

The next test has as its target T2, endogenous A2BR (Homo sapiens, UniProt P29275).
T2 construct: HEK293G cells that express the cAMP biosensor Glosensor also endogenously express both A2BR and A2AR; host or cells: HEK293G
T2 sequence (P29275 1-332): T1 sequence (P29275 1-332)
Description: cAMP GloSensor luminescence assay in HEK293G cells endogenously expressing A2BR. The format is cell-based. The following applies: 20 nM and 200 nM PSB603‐BY630, endogenous A2BR. How it is done:
The cAMP GloSensor™ luminescence assay was performed according to the manufacturer's instructions (Promega Corporation, Madison, WI, USA). Briefly, after 24 h incubation at 37°C and 5% CO2 after cell plating (40 000 cells/well in 100 μL), medium was aspirated from each well of the 96‐well plate. Cells were incubated in 50 μL HEPES buffered saline solution (HBSS; 2 mM sodium pyruvate, 145 mM NaCl, 10 mM D‐glucose, 5 mM KCl, 1 mM MgSO4.7H2O, 10 mM HEPES, 1.3 mM CaCl2, 1.5 mM NaHCO3 in double‐distilled water, pH 7.45) containing 3% GloSensor™ cAMP reagent at 37°C for 1.5 h. For agonist studies, an initial baseline luminescence read was made at time zero, the plate was then removed from the plate‐reader and a further 50 μL HBSS containing agonist (2× final concentration) or HBSS (vehicle control) added. Luminescence was measured on an open channel (gain of 3600) immediately after these additions, and then continuously over 60 min, reading each well once every minute, by a PHERAstar FSX microplate reader (BMG Labtech, Offenburg, Germany) at 37°C. Increases in luminescence are indicative of intracellular cAMP accumulation, thus the temporal changes in relative cytosolic cAMP concentration were measured upon agonist or vehicle addition. Antagonist action was determined following 30 min pre‐incubation of HBSS in the presence of 20 and 200 nM PSB603‐BY630 and read as above. All conditions were performed in triplicates within each plate.

Take `CCCn1c(=O)[nH]c2[nH]c(-c3ccc(S(=O)(=O)N4CCN(c5ccc(OCCNC(=O)CCCCCNC(=O)COc6ccc(/C=C/C7=[N+]8C(=Cc9ccc(-c%10cccs%10)n9[B-]8(F)F)C=C7)cc6)cc5)CC4)cc3)nc2c1=O` [PSB603‐BY630]: the Kd in test [1] is 18.3 nM. Also, the “effect on cAMP concentration‐response curve to BAY 60–6583” value at endogenous A2BR was “concentration‐dependent reduction in the maximal response to BAY 60–6583 without altering the EC50”.

What is called Kd is the free concentration of one partner at which half of the binding sites on the other are occupied at equilibrium, for simple one-to-one binding. High values mean lower affinity, low ones higher affinity.
